Entries after “also recorded” stand apart in the source; their conditions may differ.
Columns and labels:
[1] = test system: AHNAK; test: Immunofluorescence of AHNAK cellular distribution in HEK cells; type: cell-based, human; conditions: serum free medium, 24 hrs, insulin 100 nM alone or with LY 20 μM
Procedure: Immunofluorescence Studies—Human embryonic kidney (HEK) cells were plated in 60 mm plates at a density of 500,000 cells/plate. Cells were incubated for 24 h at 37° C. The next day, cells were washed with magnesium-containing phosphate-buffered saline and transferred to serum-deprived medium supplemented with 2% BSA either with or without Insulin (100 nM). After 24 h, the cells were fixed in 4% paraformaldehyde and stained for indirect immunofluorescence using an anti-AHNAK primary antibody (SC 81048), followed by a FITC-conjugated goat anti-mouse secondary antibody. The nuclei were stained by DAPI.

[2] = test system: GLUT4 promoter; test: GLUT4-P-Luc promoter reporter (luciferase) assay in primary rat adipocytes (PRA); type: cell-based
Text: (§1) Expression vectors and luciferase promoter reporters. Expression vectors, pC-DY, pM-DY, and pN-DY, baring the C-terminus, middle domain, and N-terminus of human AHNAK in c-myc-tagged pCDNA3 (Hashimoto, Amagai et al. 1993; Nie, Ning et al. 2000), were a generous gift of Dr. Hashimoto (Department of Dermatology, Kurume University School of Medicine, Kurume, Fukuoka, Japan). The rat GLUT4 promoter (GLUT4-P) reporter and a derived series of progressively 5′-deleted promoter reporters, have been described by us previously (Armoni, Harel et al. 2005). A control synthetic reporter 3×IRS-LUC, containing three repeats of an insulin response element consensus motif in pGL2 was provided by Dr. Eric Tang (Tang, Nunez et al. 1999).
Cell cultures and transient expression assays. […]
(§2) PRA were transfected by electroporation with 2 μg of GLUT4 promoter reporter DNA, 0-5 μg of expression vectors and 0.5 μg of pCMV-β-galactosidase. […] Within each experiment, values were expressed as a percentage of the basal GLUT4 promoter activity, i.e. the activity obtained in cells transfected with promoter reporter alone. Cell viability was assessed by trypan blue exclusion. Each experiment was repeated three to four times, with each sample analyzed in quadruplicates.

[3] = test system: insulin response element (3×IRS-LUC); test: 3×IRS-LUC synthetic promoter reporter assay in PRA; type: cell-based, rat; conditions: PRA transfected with AHNAK fragments, 24 hrs
Text: as §1, §2

[4] = test system: GLUT4 protein; test: GLUT4 protein level in PRA by Western immunoblotting; type: cell-based, rat; conditions: NT-transfected PRA, arachidonic acid 100 μM, 24 hrs
Procedure: AHNAK siRNA. Double-stranded RNAs (dsRNAs) targeting the rat AHNAK were purchased from Dharmacon (Dharmacon, Inc, California, USA). The siRNA (On TARGETplus SMARTpool L-101672-01-0010, Rat Ahnak, XM—574618) used in the experiments is a mixture consisting of the siRNAs of the sequences set forth in SEQ ID NO:1 to SEQ ID NO:8.
PRA were transfected by electroporation with the dsRNA (40 ng in PBS, pH=7.4) as described above. After 24 hrs, cells were harvested and total RNA and protein were obtained. Scrambled non targeting duplex RNA (NT-siRNA) was transfected as control. AHNAK silencing was assessed by QRT-PCR, and normalized to 18S rRNA. GLUT4 expression at protein level was assessed by Western immunoblotting as detailed by us before (Armoni et al., 2002; Armoni et al., 2005).

[5] = test system: GLUT4 promoter; test: GLUT4-P-Luc promoter reporter (luciferase) assay in H9C2 myotubes; type: cell-based, rat; conditions: 0-100 μM arachidonic acid, 24 h

insulin: Insulin purchased from SIGMA, Israel
AHNAK subcellular distribution [1]: most of it translocates to the cytosel | effect on AHNAK fragment repression of GLUT4-P ([2]; PRA transfected with AHNAK fragments, 24 hrs): partially rescued the activity | effect on AHNAK repression of 3×IRS-LUC reporter [3]: partially rescued the activity; also recorded: curtailed this repression

O=c1cc(N2CCOCC2)oc2c(-c3ccccc3)cccc12 [LY]
AHNAK subcellular distribution [1]: AHNAK nuclear re-distribution

CCCCC/C=C\C/C=C\C/C=C\C/C=C\CCCC(=O)O [arachidonic acid]
decrease in GLUT4 protein levels [4]: ~40%±3 | effect on transcription from GLUT4-P ([2]; PRA, ambient arachidonic acid levels, 24 h): dose-dependently repressed transcription from GLUT4-P | effect on transcription from GLUT4-P [5]: dose-dependently repressed transcription from GLUT4-P

Reference: US20110015123A1, “Modulation of GLUT4 Gene Promoter activity BY AHNAK” (Technion Research and Developmet Foundation Ltd., priority 2008, published 2011)
